Results published in the supplement of paper PMC11061612.

Assays:
AZD5991 = compound: Cc1c2c(nn1C)CSCc1cc(n(C)n1)CSc1cc(c3ccccc3c1)OCCCc1c(C(=O)O)n(C)c3c-2c(Cl)ccc13 [AZD5991]; details: max 1 µM
In short: (§1)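 Plates with 1536 wells received cancer cell lines in 7.5 μl of DMEM/F12 or RPMI containing 10% FBS. After 24 hours at 37°C and 5% CO2, cells were dosed for 72 hours with final DMSO typically 0.2%, and viability was read by CellTiter-Glo 2.0 luminescence scaled between blank-well and DMSO-well means. The single-agent IC50 was taken from a logistic fit of the dose responses made with a non-linear mixed effects model, that logistic curve having two parameters.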

Alisertib = compound: COc1cc(Nc2ncc3c(n2)-c2ccc(Cl)cc2C(c2c(F)cccc2OC)=NC3)ccc1C(=O)O [Alisertib]; details: max 10 µM
In short: as §1

Taselisib = compound: Cc1nc(-c2cn3c(n2)-c2ccc(-c4cnn(C(C)(C)C(N)=O)c4)cc2OCC3)n(C(C)C)n1 [Taselisib]; details: max 10 µM
In short: as §1

AZD1390 = compound: CC(C)n1c(=O)n(C)c2cnc3cc(F)c(-c4ccc(OCCCN5CCCCC5)nc4)cc3c21 [AZD1390]; details: max 0.3 µM
In short: as §1

Prexasertib = compound: COc1cccc(OCCCN)c1-c1cc(Nc2cnc(C#N)cn2)n[nH]1 [Prexasertib]; details: max 1 µM
In short: as §1

AZD8186 = compound: C[C@@H](Nc1cc(F)cc(F)c1)c1cc(C(=O)N(C)C)cc2c(=O)cc(N3CCOCC3)oc12 [AZD8186]; details: max 10 µM
In short: as §1

Carboplatin = compound: C1CC(C1)(C(=O)[O-])C(=O)[O-].N.N.[Pt+2] [Carboplatin]; details: max 10 µM
In short: as §1

Venetoclax = compound: CC1(C)CCC(CN2CCN(c3ccc(C(=O)NS(=O)(=O)c4ccc(NCC5CCOCC5)c([N+](=O)[O-])c4)c(Oc4cnc5[nH]ccc5c4)c3)CC2)=C(c2ccc(Cl)cc2)C1 [Venetoclax]; details: max 1 µM
In short: as §1

Trametinib = compound: CC(=O)Nc1cccc(-n2c(=O)n(C3CC3)c(=O)c3c(Nc4ccc(I)cc4F)n(C)c(=O)c(C)c32)c1 [Trametinib]; details: max 1 µM
In short: as §1

AZD7648 = compound: Cc1cc2ncnn2cc1Nc1ncc2c(n1)n(C1CCOCC1)c(=O)n2C [AZD7648]; details: max 10 µM
In short: as §1

5-Fluorouracil = compound: O=c1[nH]cc(F)c(=O)[nH]1 [5-Fluorouracil]; details: max 20 µM
In short: as §1

[1] = compound: O=C(Nc1ccc2[nH]nc(-c3ccncc3)c2c1)[C@@H]1CCN(CC(=O)N2CCN(c3ccc(-c4ncccn4)cc3)CC2)C1; details: max 5 µM
In short: as §1

Gefitinib = compound: COc1cc2ncnc(Nc3ccc(F)c(Cl)c3)c2cc1OCCCN1CCOCC1 [Gefitinib]; details: max 10 µM
In short: as §1

Etoposide = compound: COc1cc([C@@H]2c3cc4c(cc3[C@@H](O[C@@H]3O[C@@H]5CO[C@@H](C)O[C@H]5[C@H](O)[C@H]3O)[C@H]3COC(=O)[C@H]23)OCO4)cc(OC)c1O [Etoposide]; details: max 10 µM
In short: as §1

MK-2206 = compound: NC1(c2ccc(-c3nc4ccn5c(=O)[nH]nc5c4cc3-c3ccccc3)cc2)CCC1 [MK-2206]; details: max 10 µM
In short: as §1

Crizotinib = compound: C[C@@H](Oc1cc(-c2cnn(C3CCNCC3)c2)cnc1N)c1c(Cl)ccc(F)c1Cl [Crizotinib]; details: max 10 µM
In short: as §1

AZD1775 = compound: C=CCn1c(=O)c2cnc(Nc3ccc(N4CCN(C)CC4)cc3)nc2n1-c1cccc(C(C)(C)O)n1 [AZD1775]; details: max 3 µM
In short: as §1

Savolitinib = compound: C[C@@H](c1ccc2nccn2c1)n1nnc2ncc(-c3cnn(C)c3)nc21 [Savolitinib]; details: max 1 µM
In short: as §1

AZD5153 = compound: COc1nnc2ccc(N3CCC(c4ccc(OCCN5CCN(C)C(=O)[C@H]5C)cc4)CC3)nn12 [AZD5153]; details: max 1 µM
In short: as §1

Selumetinib = compound: Cn1cnc2c(F)c(Nc3ccc(Br)cc3Cl)c(C(=O)NOCCO)cc21 [Selumetinib]; details: max 10 µM
In short: as §1

Olaparib = compound: O=C(c1cc(Cc2n[nH]c(=O)c3ccccc23)ccc1F)N1CCN(C(=O)C2CC2)CC1 [Olaparib]; details: max 10 µM
In short: as §1

AZD4320 = compound: CN(CC[C@H](CSC1=CC=CC=C1)NC2=C(C=C(C=C2)S(=O)(=O)NC(=O)C3=CC=C(C=C3)N4CCC(CC4)[C@H](C5=CC=CC=C5C6=CC=C(C=C6)Cl)O)S(=O)(=O)C(F)(F)F)CCO [AZD4320]; details: max 1 µM
In short: as §1

Gemcitabine = compound: Nc1ccn([C@@H]2O[C@H](CO)[C@@H](O)C2(F)F)c(=O)n1 [Gemcitabine]; details: max 0.3 µM
In short: as §1

AZD6738 = compound: C[C@@H]1COCCN1C2=NC(=NC(=C2)C3(CC3)[S@](=N)(=O)C)C4=C5C=CNC5=NC=C4 [AZD6738]; details: max 10 µM
In short: as §1

AZD5363 = compound: C1CN(CCC1(C(=O)N[C@@H](CCO)C2=CC=C(C=C2)Cl)N)C3=NC=NC4=C3C=CN4 [AZD5363]; details: max 10 µM
In short: as §1

Doxorubicin = compound: COc1cccc2c1C(=O)c1c(O)c3c(c(O)c1C2=O)C[C@@](O)(C(=O)CO)C[C@@H]3O[C@H]1C[C@H](N)[C@H](O)[C@H](C)O1 [Doxorubicin]; details: max 1 µM
In short: as §1

SRA737 = compound: N#Cc1cnc(Nc2cc(NC[C@H]3CNCCO3)c(C(F)(F)F)cn2)cn1 [SRA737]; details: max 10 µM
In short: as §1

Paclitaxel = compound: CC(=O)O[C@H]1C(=O)[C@@]2(C)[C@H]([C@H](OC(=O)c3ccccc3)[C@]3(O)C[C@H](OC(=O)[C@H](O)[C@@H](NC(=O)c4ccccc4)c4ccccc4)C(C)=C1C3(C)C)[C@]1(OC(C)=O)CO[C@@H]1C[C@@H]2O [Paclitaxel]; details: max 3 µM
In short: as §1

Lapatinib = compound: CS(=O)(=O)CCNCc1ccc(-c2ccc3ncnc(Nc4ccc(OCc5cccc(F)c5)c(Cl)c4)c3c2)o1 [Lapatinib]; details: max 10 µM
In short: as §1

AZD2811 = compound: CCN(CCO)CCCOc1ccc2c(Nc3cc(CC(=O)Nc4cccc(F)c4)[nH]n3)ncnc2c1 [AZD2811]; details: max 1 µM
In short: as §1

SN-38 = compound: CCc1c2c(nc3ccc(O)cc13)-c1cc3c(c(=O)n1C2)COC(=O)[C@]3(O)CC [SN-38]; details: max 0.3 µM
In short: as §1

AZD0156 = compound: CN(C)CCCOc1ccc(-c2ccc3ncc4c(c3c2)n(C2CCOCC2)c(=O)n4C)cn1 [AZD0156]; details: max 3 µM
In short: as §1

SG3199 = compound: CC1=CN2[C@@H](C1)C=NC3=CC(=C(C=C3C2=O)OC)OCCCCCOC4=C(C=C5C(=C4)N=C[C@@H]6CC(=CN6C5=O)C)OC [SG3199]; details: max 0.001 µM
In short: as §1

Dasatinib = compound: CC1=C(C(=CC=C1)Cl)NC(=O)C2=CN=C(S2)NC3=CC(=NC(=N3)C)N4CCN(CC4)CCO [Dasatinib]; details: max 2 µM
In short: as §1

Palbociclib = compound: CC(=O)c1c(C)c2cnc(Nc3ccc(N4CCNCC4)cn3)nc2n(C2CCCC2)c1=O [Palbociclib]; details: max 10 µM
In short: as §1

| Cell Line | IC50, cell viability 72 h (AZD5991) [µM] | IC50, cell viability 72 h (Alisertib) [µM] | IC50, cell viability 72 h (Taselisib) [µM] | IC50, cell viability 72 h (AZD1390) [µM] | IC50, cell viability 72 h (Prexasertib) [µM] | IC50, cell viability 72 h (AZD8186) [µM] | IC50, cell viability 72 h (Carboplatin) [µM] | IC50, cell viability 72 h (Venetoclax) [µM] | IC50, cell viability 72 h (Trametinib) [µM] | IC50, cell viability 72 h (AZD7648) [µM] | IC50, cell viability 72 h (5-Fluorouracil) [µM] | IC50, cell viability 72 h [1] [µM] | IC50, cell viability 72 h (Gefitinib) [µM] | IC50, cell viability 72 h (Etoposide) [µM] | IC50, cell viability 72 h (MK-2206) [µM] | IC50, cell viability 72 h (Crizotinib) [µM] | IC50, cell viability 72 h (AZD1775) [µM] | IC50, cell viability 72 h (Savolitinib) [µM] | IC50, cell viability 72 h (AZD5153) [µM] | IC50, cell viability 72 h (Selumetinib) [µM] | IC50, cell viability 72 h (Olaparib) [µM] | IC50, cell viability 72 h (AZD4320) [µM] | IC50, cell viability 72 h (Gemcitabine) [µM] | IC50, cell viability 72 h (AZD6738) [µM] | IC50, cell viability 72 h (AZD5363) [µM] | IC50, cell viability 72 h (Doxorubicin) [µM] | IC50, cell viability 72 h (SRA737) [µM] | IC50, cell viability 72 h (Paclitaxel) [µM] | IC50, cell viability 72 h (Lapatinib) [µM] | IC50, cell viability 72 h (AZD2811) [µM] | IC50, cell viability 72 h (SN-38) [µM] | IC50, cell viability 72 h (AZD0156) [µM] | IC50, cell viability 72 h (SG3199) [µM] | IC50, cell viability 72 h (Dasatinib) [µM] | IC50, cell viability 72 h (Palbociclib) [µM] |
| --- | --- | --- | --- | --- | --- | --- | --- | --- | --- | --- | --- | --- | --- | --- | --- | --- | --- | --- | --- | --- | --- | --- | --- | --- | --- | --- | --- | --- | --- | --- | --- | --- | --- | --- | --- |
| KARPAS-299 (T-Cell Non-Hodgkin's Lymphoma) | 0.326 | > 10 | > 10 | > 0.3 | 0.00515 | > 10 | > 10 | 0.708 | > 1 | > 10 | 4.46 | > 5 | > 10 | 3.37 | > 10 | 0.846 | 0.459 | > 1 | 0.115 | > 10 | > 10 | > 1 | 0.0266 | 0.698 | > 10 | 0.523 | 1.13 | 0.0306 | > 10 | > 1 | 0.0357 | > 3 | > 0.001 | > 2 | > 10 |
| KYSE-450 (Esophageal Squamous Cell Carcinoma) | > 1 | > 10 | 7.52 | > 0.3 | 0.226 | > 10 | > 10 | > 1 | > 1 | > 10 | > 20 | > 5 | > 10 | > 10 | > 10 | > 10 | 0.614 | > 1 | > 1 | > 10 | > 10 | > 1 | > 0.3 | > 10 | > 10 | > 1 | > 10 | 0.0677 | > 10 | > 1 | > 0.3 | > 3 | > 0.001 | > 2 | > 10 |
